Consider 2 molecules from patent EP3685668B1, “COMPOSITION COMPRISING ACIBENZOLAR-S-METHYL AS EFFECTIVE INGREDIENT FOR CONTROLLING BURSAPHELENCHUS XYLOPHILUS DISEASE AND METHOD FOR CONTROLLING BURSAPHELENCHUS XYLOPHILUS USING SAME” (Industry Foundation of Chonnam National University, priority 2017, dated 2019).

One assay has as its system Cytochrome_P450. Put plainly: qRT-PCR expression of induced resistance gene in pine tree callus. In kind it is cell-based. Particulars: 200 µg/mℓ, 24 hours. Here is the method:
For in vitro analysis of induced resistance, the expression of PR genes and other plant defense-related genes was determined, which are evolved in various defense mechanisms including induced resistance. The primers of sixteen induced resistance-related genes of pine tree used in this invention were listed in the below and elongation factor_1 alpha were used as a reference gene. […] The primer list of defense resistance-related genes
After the treatment with 200 µg / mℓ of candidates of the selected induced resistance material, expression of the induced resistance-related gene in pine callus was determined by qRT-PCR using the primer pairs of defense resistance-related genes in Table 4. As a candidate group of an induced resistance material in pine tree, acibenzolar-S-methyl (ASM), TDL (Tiadinil), ITL (Isotianil), PBZ (Probenzole), AZO (Azoxystrobin), VMA (Validamycin A), MeJA (Methyl jasmonate), BABA (DL-3-aminobutyric acid), 2,3-BDO (2,3-Butanediol), GABA (r-Aminobutyric acid), glucan (Glucan), ER (Ergosterol), and AZA (Azelaic acid) were used. For the in vitro analysis of the expression of induced resistance gene in pine callus, the selected induced resistance materials were applied with 500 µℓ of LM liquid medium on a surface of pine tree callus (100 mg) in 12-well microplate to give final concentration of 200 µg/mℓ. Then, the callus surface was sufficiently reacted for 24 hours with the candidate of pine tree induced resistance material by shaking at 50 rpm in a 25 °C shaking incubator under dark condition. RNAs were extracted from the callus after completion of the reaction with an induced resistance material, followed by synthesis of cDNAs. Then, by carrying out qRT-PCR, the expression of induced resistance genes was determined.
Thus, the following tests were carried out using acibenzolar-S-methyl only. Expression of the induced resistance genes at different culture time after the chemical treatment was examined. For the in vitro assay, LM medium containing pine tree callus was treated with acibenzolar-S-methyl at concentration of 200 µg / mℓ, followed by reaction for 1 day, 7 days, or 14 days in a 25°C shaking incubator under dark condition. RNAs were extracted from the callus after the reaction followed by synthesis of cDNAs. Then, by carrying out qRT-PCR, the expression of the induced resistance genes was determined. Depending on reaction time after the treatment, i.e., after 1 day, 7 days, or 14 days, the expression of the obtained induced resistance genes was examined. […]
For the surface treatment (spraying treatment) of pine tree callus, 100 mg of the pine tree callus were dunked in 500 µℓ LM liquid medium and 500 µℓ of 400 µg/mℓ acibenzolar-S-methyl were sprayed (i.e., sprayed 5 times, 100 µℓ for each spraying, 200 µg/mℓ) on the callus surface. Then, the pine callus sprayed with acibenzolar-S-methyl was reacted for 24 hours by shaking at 50 rpm in a 25°C shaking incubator under dark condition. After the completion of the 24-hour reaction, RNAs were extracted from the callus followed by synthesis of cDNAs. Then, by carrying out qRT-PCR, expression of the induced resistance gene was determined.

The test system of assay [1] is Bursaphelenchus xylophilus. Put plainly: Occurrence of pine wilt disease after trunk injection of induced resistance candidate materials, in vivo test in young red pine trees. The note with it: red pine tree (Pinus densiflora), 30 days after inoculation; for Occurrence rate of pine wilt disease: Number of pine trees showing wilt symptoms / Number of pine trees used for the test: trunk injection 100 µℓ per tree; for Number of pine trees showing wilt symptoms only at growing points of a stem: trunk injection. The procedure:
By using the 15 types of an induced resistance elicitors which have been known to induce the plant resistance against various diseases as candidates, their controlling effect against pine wilt disease was examined. The control efficacy of candidates against pine wilt disease was analyzed according to an in vivo test using red pine tree (Pinus densiflora) which was 2-year old young pine trees (diameter of 5.5 mm or so, and height of about 35 mm).
As a candidate group of an induced resistance material, two kinds of acibenzolar-S-methyl (ASM), TDL (Tiadinil), ITL (Isotianil), PBZ (Probenzole), AZO (Azoxystrobin), VMA (Validamycin A), MeJA (Methyl jasmonate), BABA (DL-3-aminobutyric acid), 2,3-BDO (2,3-Butanediol), SA (salicyclic acid), GABA (r-Aminobutyric acid), glucan (Glucan), ER (Ergosterol), and AZA (Azelaic acid) were used. Only the use of acibenzolar-S-methyl is according to the invention. Injection of the chemicals was carried out by trunk injection method, i.e., at an angle of 45°, a borehole was created by using an electric drill with thickness of 1.5 mm on a pine stem part that is 5 to 10 cm above the soil surface, a tip (200 µℓ) was inserted to the hole, and, after dissolving the candidate material at concentration level of 200, 20, or 2 µg/mℓ in each solvent, the solution was injected in an amount of 100 µℓ per pine tree. After the injection of the chemical agent, the end part of the tip was sealed with parafilm.
The pine tree wilt nematodes (Bursaphelenchus xylophilus, National Institute of Forest Science (NIFoS), South Korea) was incubated at 25°C by feeding them with Botrytis cinerea, which have been cultured on a potato dextrose agar (PDA) medium, and after one week incubation, they were collected by Baermann funnel method and were adjusted to the level of 20,000 worms/mℓ by examining the number of the worms under an optical microscope. One week after the chemical treatment, the inoculation of the pine tree wilt nematodes was carried out by tree barking inoculation of 100 µℓ, i.e., 2,000 worms, per tree, and the result was determined 30 days after the inoculation. […] [Table 1] Occurrence rate of pine wilt disease in candidate group of induced resistance materials

For `CC(O)C(C)O` (centres unmarked) [2,3-BDO, 2,3-Butanediol], the “Expression of induced resistance gene, Cytochrome_P450” value with Cytochrome_P450 is recorded as 0.88. Moreover, the “Occurrence rate of pine wilt disease: Number of pine trees showing wilt symptoms / Number of pine trees used for the test” value was 2/3 in assay [1] (2 µg/mℓ), 3/3 in assay [1] (20 µg/mℓ) and 1/3 in assay [1] (200 µg/mℓ). Moreover, the figures for the “Number of pine trees showing wilt symptoms only at growing points of a stem” value in assay [1] (2 µg/mℓ), in assay [1] (20 µg/mℓ) and in assay [1] (200 µg/mℓ) were 2, 1 and 1, respectively.
On to `CC(N)CC(=O)O` (racemic) [BABA, DL-3-aminobutyric acid], for which the “Expression of induced resistance gene, Cytochrome_P450” value in the assay with Cytochrome_P450 is 0.37. Moreover, the “Occurrence rate of pine wilt disease: Number of pine trees showing wilt symptoms / Number of pine trees used for the test” value is 2/3 in assay [1] (2 µg/mℓ), 3/3 in assay [1] (20 µg/mℓ) and 2/3 in assay [1] (200 µg/mℓ). For the same molecule, the “Number of pine trees showing wilt symptoms only at growing points of a stem” value in assay [1] (2 µg/mℓ), in assay [1] (20 µg/mℓ) and in assay [1] (200 µg/mℓ) was 2 throughout.
